Test systems include Escherichia coli ML-35p; Pseudomonas aeruginosa; Klebsiella pneumoniae; Escherichia coli 37; Shigella dysenteriae; Staphylococcus aureus 10; Bacillus megaterium F04; Escherichia coli UB1005; Escherichia coli BL21; Escherichia coli K-12; Escherichia coli DC2.
What all share (assay): ≥ marks a high value that may be exact or a test limit, other limits are often not marked, values filed in µg/mL are converted to µM
The test system of experiment [1] is Escherichia coli ESBL 521/17.
Experiment [2] deals with Staphylococcus aureus ATCC 33591.
Experiment [3] deals with Pseudomonas aeruginosa 522/17.
The subject of experiment [4] is Staphylococcus aureus SG511.
In experiment [5] the test system is Acinetobacter baumannii 7226/16.
Experiment [6] concerns Staphylococcus aureus 1399/17.
Experiment [7] relates to Klebsiella pneumoniae ESBL 344/17.
Experiment [8] relates to Pseudomonas aeruginosa ATCC 9027.
Experiment [9] concerns Bacillus subtilis ATCC 9372.
Experiment [10] relates to Staphylococcus aureus ATCC 6538.
Experiment [11] concerns Escherichia coli ATCC 8739.
Experiment [12] relates to Proteus vulgaris NCTC 4635.
In experiment [13] the test system is Candida albicans ATCC 2002.
For experiment [14], the system named is Enterococcus faecalis ATCC 29212.
Experiment [15] deals with Escherichia coli ATCC 25922.
For experiment [16], the system named is Pseudomonas aeruginosa CMCCB 1010.
The test system of experiment [17] is Staphylococcus aureus ATCC 25923.
Experiment [18] concerns Pseudomonas aeruginosa ATCC 27853.
Experiment [19] deals with Klebsiella pneumoniae ATCC 700603.
In experiment [20] the test system is Enterobacter cloacae ATCC 13047.
Experiment [21] concerns Legionella longbeachae ATCC 33484.
In experiment [22] the test system is Legionella micdadei ATCC 33218.
For experiment [23], the system named is Legionella oakridgensis ATCC 33761.
Experiment [24] concerns Legionella pneumophila Corby.
Experiment [25] relates to Legionella pneumophila Paris.
Experiment [26] deals with Legionella pneumophila ATCC 33216.
In experiment [27] the test system is Legionella pneumophila Lens.
Experiment [28] relates to Legionella pneumophila ATCC 33215.
The test system of experiment [29] is Legionella pneumophila ATCC 33155.
Experiment [30] relates to Legionella bozemanae ATCC 33217.
The subject of experiment [31] is Legionella feeleii ATCC 35072.
Experiment [32] deals with Pseudomonas aeruginosa PA330.
In experiment [33] the test system is Pseudomonas aeruginosa PAO1.
In experiment [34] the test system is Pseudomonas aeruginosa PA214.
Experiment [35] deals with Corynebacterium xerosis C875.
For experiment [36], the system named is Bacillus subtilis ATCC 6633.
In experiment [37] the test system is Staphylococcus epidermidis C621.

Converted amounts (≈) assume the structure as drawn.

As a reminder, the MIC is the smallest concentration in the dilution series that meets the test's criterion for growth inhibition. A high value points to weaker potency. Take `CC[C@H](C)[C@H](NC(=O)[C@H](CCCN=C(N)N)NC(=O)[C@@H](NC(=O)[C@@H]1CCCN1C(=O)[C@@H]1CCCN1C(=O)[C@H](CCCN=C(N)N)NC(=O)[C@H](CCCN=C(N)N)NC(=O)[C@H](Cc1ccccc1)NC(=O)[C@@H]1CCCN1C(=O)[C@H](CC(C)C)NC(=O)[C@H](CCCN=C(N)N)NC(=O)[C@H](Cc1ccccc1)NC(=O)[C@@H](N)CCCN=C(N)N)[C@@H](C)CC)C(=O)N[C@@H](Cc1cnc[nH]1)C(=O)N1CCC[C@H]1C(=O)N1CCC[C@H]1C(=O)N1CCC[C@H]1C(=O)N[C@@H](Cc1ccccc1)C(=O)N[C@@H](Cc1ccc(O)cc1)C(=O)N1CCC[C@H]1C(=O)N1CCC[C@H]1C(=O)N[C@@H](Cc1ccccc1)C(=O)N[C@@H](CCCN=C(N)N)C(=O)N[C@@H](CCCN=C(N)N)C(=O)N[C@@H](Cc1ccccc1)C(=O)N[C@@H](CC(C)C)C(=O)O` [RFRLPFRRPPIRIHPPPFYPPFRRFL]: the minimum inhibitory concentration (MIC) was 4 µM (≈ 13.5 µg/mL) in experiment [1]; not below 32 µM in experiment [2]; not below 32 µM in experiment [3]; 2 µM (≈ 6.75 µg/mL) against Escherichia coli ML-35p; 0.5 µM (≈ 1.69 µg/mL) in experiment [4]; 5.66 µM (≈ 19.1 µg/mL) in experiment [5]. For the same compound, the minimum inhibitory concentration (MIC) in [6] worked out at 11.3 µM (≈ 38.2 µg/mL); in experiment [7], 5.66 µM (≈ 19.1 µg/mL).
Take `CC[C@H](C)[C@H](NC(=O)[C@@H](NC(=O)[C@H](C)NC(=O)[C@H](Cc1ccccc1)NC(=O)[C@H](CC(C)C)NC(=O)CN)C(C)C)C(=O)N[C@@H](CCCCN)C(=O)N[C@@H](CCCCN)C(=O)N[C@H](C(=O)N[C@@H](C)C(=O)N[C@@H](CO)C(=O)N[C@H](C(=O)O)C(C)C)C(C)C` [GLFAVIKKVASV]: the MIC is 208 µM (≈ 256 µg/mL) in experiment [8]; not below 52 µM in experiment [9]; 208 µM (≈ 256 µg/mL) in [10]; not below 104 µM in experiment [11]; not below 416 µM in experiment [12].
Consider `CC[C@H](C)[C@H](NC(=O)[C@H](CC(C)C)NC(=O)[C@H](CC(C)C)NC(=O)[C@H](CCCCN)NC(=O)[C@H](C)NC(=O)[C@H](CC(C)C)NC(=O)[C@H](CCCCN)NC(=O)[C@@H](NC(=O)[C@H](C)NC(=O)CNC(=O)[C@H](CCSC)NC(=O)[C@H](CO)NC(=O)[C@@H](N)CC(=O)O)C(C)C)C(=O)N[C@@H](CC(=O)O)C(=O)N[C@@H](CCCCN)C(=O)N[C@@H](CCSC)C(=O)N[C@@H](CCCCN)C(=O)N[C@H]1CSSC[C@@H](C(=O)O)NC(=O)[C@H](C)NC(=O)[C@H](CCCCN)NC(=O)[C@H]([C@@H](C)O)NC(=O)[C@H](C(C)C)NC(=O)[C@H](CCC(=O)O)NC1=O` [DSMGAVKLAKLLIDKMKCEVTKAC], for which the MIC in experiment [13] was not below 60 µM; in experiment [14] it was 60 µM (≈ 156 µg/mL); in the experiment with Pseudomonas aeruginosa, 23 µM (≈ 59.7 µg/mL); in experiment [15] it was 10 µM (≈ 25.9 µg/mL); in experiment [16], 17 µM (≈ 44.1 µg/mL); in experiment [17], 17 µM (≈ 44.1 µg/mL). Moreover, the MIC was 23 µM (≈ 59.7 µg/mL) in experiment [18]; 30 µM (≈ 77.8 µg/mL) against Klebsiella pneumoniae; not below 60 µM in the experiment with Escherichia coli 37; not below 40 µM against Shigella dysenteriae; 15 µM (≈ 38.9 µg/mL) in experiment [19]; not below 40 µM with Staphylococcus aureus 10. For the same compound, the MIC in experiment [20] was not below 40 µM.
Regarding `CC[C@H](C)[C@H](NC(=O)[C@H](CC(C)C)NC(=O)[C@H](CC(=O)O)NC(=O)[C@@H](NC(=O)[C@@H](NC(=O)[C@H](Cc1ccccc1)NC(=O)[C@H](CCC(N)=O)NC(=O)[C@@H](N)CCSC)[C@@H](C)CC)[C@@H](C)O)C(=O)N[C@@H](CCCCN)C(=O)N[C@@H](CCCCN)C(=O)N[C@@H](C)C(=O)N[C@H](C(=O)N[C@@H](CC(=O)O)C(=O)N[C@@H](Cc1ccccc1)C(=O)N[C@@H](Cc1ccccc1)C(=O)N[C@@H](CCCCN)C(=O)NCC(=O)N[C@@H](CC(C)C)C(=O)N[C@@H](Cc1ccccc1)C(=O)NCC(=O)N[C@@H](CC(N)=O)C(=O)N[C@@H](CCCCN)C(=O)O)C(C)C` [MQFITDLIKKAVDFFKGLFGNK], the minimal inhibitory concentration (MIC) in experiment [21], in experiment [22], in experiment [23], in experiment [24], in experiment [25] and in [26] was 19.5 µM (≈ 50 µg/mL) throughout. In addition, the minimum inhibitory concentration (MIC) is 4.69 µM (≈ 12 µg/mL) against Bacillus megaterium F04; 1.17 µM (≈ 3 µg/mL) in experiment [27]; 19.5 µM (≈ 50 µg/mL) in experiment [28]; 19.5 µM (≈ 50 µg/mL) in experiment [29]; 19.5 µM (≈ 50 µg/mL) in [30]; 19.5 µM (≈ 50 µg/mL) in [31].
Turning to `C[C@H](NC(=O)[C@H](C)NC(=O)[C@H](Cc1ccccc1)NC(=O)[C@H](C)NC(=O)[C@H](C)NC(=O)[C@H](Cc1c[nH]c2ccccc12)NC(=O)[C@H](C)NC(=O)[C@H](C)NC(=O)[C@H](Cc1ccccc1)NC(=O)[C@H](C)NC(=O)[C@H](C)NC(=O)[C@H](CCCCN)NC(=O)[C@H](CCCCN)NC(=O)[C@H](CCCCN)NC(=O)[C@H](CCCCN)NC(=O)[C@H](CCCCN)NC(=O)[C@@H](N)CCCCN)C(N)=O` [KKKKKKAAFAAWAAFAA], the MIC is 17.7 µM (≈ 32.4 µg/mL) in [32]; 12.5 µM (≈ 22.9 µg/mL) in experiment [33]; 3.1 µM (≈ 5.69 µg/mL) in [34]; more than 32 µM in experiment [14]; 8 µM (≈ 14.7 µg/mL) in [15]; 0.5 µM (≈ 0.918 µg/mL) in experiment [35]. Also, the MIC against Escherichia coli UB1005 was 1 µM (≈ 1.84 µg/mL); in experiment [17], more than 32 µM; with Escherichia coli BL21, 1.6 µM (≈ 2.94 µg/mL); in experiment [18] it was 16 µM (≈ 29.4 µg/mL); with Escherichia coli K-12, 1.6 µM (≈ 2.94 µg/mL); in experiment [36], 8 µM (≈ 14.7 µg/mL). The minimum inhibitory concentration (MIC) was found to be 0.5 µM (≈ 0.918 µg/mL) against Escherichia coli DC2 and 4 µM (≈ 7.34 µg/mL) in experiment [37].

The values above are taken from DBAASP.
